Tests used:
RTA [1] = target: T1, RTA (Ricinus communis (Castor bean), UniProt P02879); test: biochemical; format: biochemical; settings: for inhibition at 50 µM: read-out: Percent inhibition at 50 μM
RTA [2] = target: T1, RTA; format: binding
Stx2A1 [3] = target: T2, Stx2A1 (Escherichia phage 933W (Bacteriophage 933W), UniProt P09385); format: binding
Stx2A1 [4] = target: T2, Stx2A1; test: biochemical; format: biochemical
Stx2a holotoxin = Stx2a holotoxin (Escherichia phage 933W (Bacteriophage 933W), UniProt P09385); test: cell-based; format: cell-based
[5] = read-out: % inhibition Stx2A1 in yeast ribosome
[6] = Vero, read-out: % Inhibition Stx2a depurination in Vero cell

T2 sequence (P09385 23-272 limits assumed): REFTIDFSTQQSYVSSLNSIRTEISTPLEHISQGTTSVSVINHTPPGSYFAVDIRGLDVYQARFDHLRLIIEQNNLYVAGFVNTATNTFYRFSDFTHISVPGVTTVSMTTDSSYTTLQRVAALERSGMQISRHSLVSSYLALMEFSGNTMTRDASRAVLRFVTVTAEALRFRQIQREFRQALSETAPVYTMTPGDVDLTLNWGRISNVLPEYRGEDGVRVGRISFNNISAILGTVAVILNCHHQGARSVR
Chain of Stx2a holotoxin (P09385 23-319 limits assumed): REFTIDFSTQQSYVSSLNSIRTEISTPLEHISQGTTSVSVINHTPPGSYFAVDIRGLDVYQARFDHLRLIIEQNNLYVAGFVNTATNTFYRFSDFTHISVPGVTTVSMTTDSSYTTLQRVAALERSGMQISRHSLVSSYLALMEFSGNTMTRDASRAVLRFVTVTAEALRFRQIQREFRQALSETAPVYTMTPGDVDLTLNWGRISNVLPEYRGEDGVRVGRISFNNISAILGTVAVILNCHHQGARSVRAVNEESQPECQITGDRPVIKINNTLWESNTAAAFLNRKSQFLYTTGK

Cc1cccc(O)c1-c1ccc(C(=O)O)s1 [RU-NT-113]
inhibition at 50 µM (RTA [1]): 69% | Kd (RTA [2]): 31 µM

O=C(O)c1csc(-c2cccc(Cl)c2)n1
Kd (Stx2A1 [3]): 0.579 mM | inhibition at 100 µM (Stx2A1 [4]; [5]): 83% | inhibition at 200 µM (Stx2A1 [4]; [5]): 91%

O=C(O)c1cc2c(s1)-c1ccccc1CC2 [drawing 373]
Kd (Stx2A1 [3]): 0.629 mM | inhibition at 250 µM (Stx2a holotoxin; [6]): 18% | inhibition at 500 µM (Stx2a holotoxin; [6]): 36% | inhibition at 50 µM (Stx2A1 [4]; [5]): 45% | inhibition at 100 µM (Stx2A1 [4]; [5]): 51% | inhibition at 200 µM (Stx2A1 [4]; [5]): 80%

O=C(O)c1cc2c(s1)-c1ccccc1CC2 [PD00589, reference compound]
protection against depurination by Stx2a holotoxin in Vero cells (Stx2a holotoxin): protected Vero cells against depurination | inhibitory activity against Stx2A/Stx2A1 depurination in vitro (Stx2A1 [4]): dose-dependent inhibition

Cc1ccc(-c2ccc(C(=O)O)o2)cc1
Kd (Stx2A1 [3]): 0.606 mM | inhibition at 100 µM (Stx2A1 [4]; [5]): 64% | inhibition at 200 µM (Stx2A1 [4]; [5]): 70%

O=C(O)c1csc(-c2cccc(Cl)c2Cl)n1
Kd (Stx2A1 [3]): 0.487 mM | inhibition at 100 µM (Stx2A1 [4]; [5]): 82% | inhibition at 200 µM (Stx2A1 [4]; [5]): 62%

O=C(O)c1ccc(Cc2cccs2)cc1 [CC70601, 4-(thien-2-ylmethyl) benzoic acid]
binding in the binding level screen (RTA [2]): bound RTA better than the positive controls

O=C(O)c1ccc(-c2ccccc2)s1 [CC10501, 5-phenylthiophene-2-carboxylic acid]
IC50 fold weaker than CC70601 (RTA [1]): 5.6 fold | binding in the binding level screen (RTA [2]): bound RTA better than the positive controls

Cc1ccccc1-c1ccc(C(=O)O)s1 [RU-NT-070]
IC50 (RTA [1]): 19 µM | Kd (RTA [2]): 72 µM

O=C(O)c1ccc(-c2ccc(Cl)cc2)o1
Kd (Stx2A1 [3]): 0.575 mM | IC50 (Stx2A1 [4]): 194 µM

O=C(O)c1ccc(-c2cccc3c2OCC3)s1 [RU-NT-105]
inhibition at 100 µM (RTA [1]; read-out: Percent inhibition at 100 μM): 54 ± 7% | Kd (RTA [2]): 1180 ± 193 µM

Cc1cc(C)c(-c2ccc(C(=O)O)s2)c(C)c1 [RU-NT-075]
inhibition at 50 µM (RTA [1]): 45%

COc1cccc(C)c1-c1ccc(C(=O)O)s1 [RU-NT-111]
inhibition at 50 µM (RTA [1]): 66% | Kd (RTA [2]): 51 µM

Cc1cccc(F)c1-c1ccc(C(=O)O)s1 [RU-NT-110]
inhibition at 50 µM (RTA [1]): 61% | Kd (RTA [2]): 93 µM

Reference: patent US12427135B2 (priority 2019, dated 2025)
